The text below walks through data of ChEMBL document CHEMBL1155866, “Effects of N-pyrrole substitution on the anti-biofilm activities of oroidin derivatives against Acinetobacter baumannii” (Bioorg Med Chem Lett, 2008).

The test system of test [1] is Acinetobacter baumannii. As to the kind of experiment: Inhibition of […] biofilm formation at 500 uM after 24 hrs by crystal violet reporter assay. Format: functional.
Test [2] deals with Acinetobacter baumannii. As to the kind of experiment: Inhibition of […] biofilm formation after 24 hrs by crystal violet reporter assay. Format: functional, organism-based.
Test [3] concerns Acinetobacter baumannii. The test can be described thus: Inhibition of […] biofilm dispersion after 24 hrs by crystal violet reporter assay. Format: functional, organism-based.

Structures are written as SMILES.

`CCn1c(C(=O)NCCCc2c[nH]c(N)n2)cc(Br)c1Br` displayed an inhibition at 500 µM with Acinetobacter baumannii [1] of 10.3%.
In the test with Acinetobacter baumannii [2], `Nc1nc(CCCNC(=O)c2cc(Br)c(Br)n2C2CCCC2)c[nH]1` yielded an IC50 of 40.5 µM.
`Nc1nc(CCCNC(=O)c2cc(Br)c(Br)n2-c2ccc(Br)cc2)c[nH]1` showed an IC50 with Acinetobacter baumannii [2] of 26.8 µM. Besides, the EC50 with Acinetobacter baumannii [3] came to 41.3 µM.
With `Nc1nc(CCCNC(=O)c2cc(Br)c(Br)n2Cc2ccccc2)c[nH]1`, in the test on Acinetobacter baumannii [2], the IC50 stood at 35.4 µM.
On the same count and under the same terms, the same measure for `Nc1nc(CCCNC(=O)c2cc(Br)c(Br)n2CCc2ccccc2)c[nH]1`: 40.7 µM.
`Cn1c(C(=O)NCCCc2c[nH]c(N)n2)nc(Br)c1Br`: at 500 µM the inhibition in the test on Acinetobacter baumannii [1] was 50.7%.
With `COc1ccc(Cn2c(C(=O)NCCCc3c[nH]c(N)n3)cc(Br)c2Br)cc1`, the IC50 with Acinetobacter baumannii [2] turned out to be 42.8 µM.
`Nc1nc(CCCNC(=O)c2cc(Br)c(Br)n2-c2ccccc2)c[nH]1` displayed an IC50 in the test on Acinetobacter baumannii [2] of 97.7 µM.
As to `Cn1c(C(=O)NCCCc2c[nH]c(N)n2)cc(Br)c1Br` [DIHYDROSVENTRIN], the IC50 in the test with Acinetobacter baumannii [2] worked out at 110 µM. Further, the inhibition at 500 µM in the test with Acinetobacter baumannii [1] is > 99%.
